The record followed here is BindingDB's records for PubMed 8386236 (Whitby Research, 1993).

One experiment deals with T1, Adenosine receptor A2b (Bos taurus, UniProt Q1LZD0).
T1 sequence (Q1LZD0 whole entry): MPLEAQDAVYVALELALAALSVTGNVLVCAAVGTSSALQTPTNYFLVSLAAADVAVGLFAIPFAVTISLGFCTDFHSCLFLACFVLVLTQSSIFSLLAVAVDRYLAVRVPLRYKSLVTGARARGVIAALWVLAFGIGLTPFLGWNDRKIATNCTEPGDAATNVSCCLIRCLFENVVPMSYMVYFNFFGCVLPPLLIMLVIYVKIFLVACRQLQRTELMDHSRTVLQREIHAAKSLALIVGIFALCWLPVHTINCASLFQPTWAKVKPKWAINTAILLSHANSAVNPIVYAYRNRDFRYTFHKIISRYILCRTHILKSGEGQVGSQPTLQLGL

Another experiment has as its target Adenosine receptor A2a (Cavia porcellus, UniProt P46616).
The target of experiment [1] is T2, Adenosine receptor A1 (Bos taurus, UniProt P28190).
T2 sequence (P28190 whole entry): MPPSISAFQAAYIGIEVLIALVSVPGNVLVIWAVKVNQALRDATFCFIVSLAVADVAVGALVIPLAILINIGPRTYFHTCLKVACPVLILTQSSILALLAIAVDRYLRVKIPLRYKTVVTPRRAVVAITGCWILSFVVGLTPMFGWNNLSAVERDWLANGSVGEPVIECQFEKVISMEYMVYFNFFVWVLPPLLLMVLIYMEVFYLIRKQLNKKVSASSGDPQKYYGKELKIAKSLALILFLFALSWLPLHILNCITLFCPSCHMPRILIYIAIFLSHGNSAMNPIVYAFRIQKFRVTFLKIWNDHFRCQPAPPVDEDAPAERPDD

In experiment [2] the target is T3, Adenosine receptor A1 (Cavia porcellus, UniProt P47745).
T3 sequence (P47745 whole entry): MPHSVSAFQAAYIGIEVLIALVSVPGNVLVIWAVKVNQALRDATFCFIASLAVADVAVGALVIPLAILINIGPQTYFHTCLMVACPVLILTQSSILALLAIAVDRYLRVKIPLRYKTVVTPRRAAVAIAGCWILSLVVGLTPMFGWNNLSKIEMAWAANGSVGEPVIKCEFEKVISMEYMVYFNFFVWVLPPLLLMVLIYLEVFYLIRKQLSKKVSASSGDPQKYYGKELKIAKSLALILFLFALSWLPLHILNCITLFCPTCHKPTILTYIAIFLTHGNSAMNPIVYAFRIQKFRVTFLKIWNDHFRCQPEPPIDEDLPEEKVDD

Adenosine receptor A2a, sequence (P46616 whole entry): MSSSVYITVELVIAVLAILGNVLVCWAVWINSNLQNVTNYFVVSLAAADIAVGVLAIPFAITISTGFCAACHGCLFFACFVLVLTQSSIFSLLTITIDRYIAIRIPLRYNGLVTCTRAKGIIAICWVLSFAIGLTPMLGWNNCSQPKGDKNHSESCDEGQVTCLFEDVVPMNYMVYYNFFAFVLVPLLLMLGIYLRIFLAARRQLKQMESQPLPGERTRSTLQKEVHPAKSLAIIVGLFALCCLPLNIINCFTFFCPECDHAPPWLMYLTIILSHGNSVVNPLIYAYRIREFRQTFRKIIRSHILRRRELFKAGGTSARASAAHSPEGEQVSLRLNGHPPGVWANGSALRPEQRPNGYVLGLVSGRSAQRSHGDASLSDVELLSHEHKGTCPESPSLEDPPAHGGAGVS

Take `Nc1nc(Cl)nc2c1ncn2[C@@H]1O[C@H](CO)[C@@H](O)[C@H]1O` [2-CI Adenosine]: the Ki (commonly a dissociation constant, usually derived from enzyme kinetics or from competition with a known ligand) on Adenosine receptor A2b was 6920 nM; at Adenosine receptor A2a, over 10000 nM.
Regarding `CC(Cc1ccccc1)Nc1ncnc2c1ncn2C1OC(CO)C(O)C1O` (centres undefined) [R-N6-(2-phenylisopropyl) adenosine], the Ki was 18.2 nM on Adenosine receptor A1 [1] and 1950 nM on Adenosine receptor A1 [2].
